For assay [1], the system named is CD44high/CD24low population of MDA-MB-231 cells. Nature of the assay: CD44+/CD24- flow cytometry. Type of assay: cell-based, human. Conditions: 50 μM, 24 hours, control 80.8%. As for the experimental part:
MDA-MB-231 cancer cells (1.5×10^6 cells) were cultured in a 6-well plate for 24 hours and treated with DMSO as a control group or dihydroconiferyl ferulate (50 μM) for 24 hours. Thereafter, the cells isolated into single cells were incubated with an anti-human CD44 antibody (FITC-conjugated) and an anti-human CD24 antibody (PE-conjugated) (BD) at 4° C. for 45 minutes. After washing with 1×PBS, CD44^+/CD24^− cells were examined using a flow cytometer Accuri C6 machine (BD San Jose, CA, USA).
CD44^+/CD24^−, a representative marker of breast cancer stem cells, was associated with stem cell-like activity in breast cancer, and since CD44^+/CD24^− MDA-MB-231 cells show higher tumorigenesis and metastasis than CD44−/CD24^+ MDA-MB-231 cells, MDA-MB-231 cells were treated with dihydroconiferyl ferulate, and then changes in the CD44^high/CD24^low population were measured, and the experimental method was described in Experimental Example 5.
(In general: Flow cytometry measures light scatter and fluorescence of single cells or particles in a stream.)

Another assay deals with MCF-7 cells. The assay is described as follows: Cell proliferation / viability assay (EZ-Cytox). Type of assay: cell-based. Conditions: Homo sapiens, MCF7, A of FIG. 6, read-out: IC50 (drug concentration required for 50% growth reduction in a survival curve). As for the experimental part:
Human breast cancer cell lines, MDA-MB-231 and MCF-7 cells, were purchased from the Korea Cell Line Bank and cultured in an incubator with an atmospheric environment of 5% CO2 and a Dulbecco's Modified Eagle's Medium (DMEM) containing 10% fetal bovine serum (Corning, Glendale, AZ, USA) and 1% penicillin/streptomycin.
MCF-7 cells (1.5×10^6 cells/plate) and MDA-MB-231 cells (1.0×10^6 cells/plate) were seeded into a 96-well plate for 24 hours and incubated with dihydroconiferyl ferulate (0, 10, 25, 50, 75, 100, 150, and 200 μM). Thereafter, cell viability was examined using the EZ-Cytox Plus Kit (DoGenBio, Seoul, Korea) according to the manufacturer's protocol. OD450 values were measured using a VERSAmax ELISA reader (Molecular Device, San Jose, CA, USA).
Breast cancer cells MCF-7 and MDA-MB-231 were treated with dihydroconiferyl ferulate, a compound purified from the leaves of Dendropanax morbiferus H.Lev at various concentrations to test an antiproliferative effect, and an experimental method was described in Experimental Example 3.

Turning to `COc1cc(/C=C/C(=O)OCCCc2ccc(O)c(OC)c2)ccc1O` [dihydroconiferyl ferulate], the CD44high/CD24low population in assay [1] was 34.0%. The IC50 with MCF-7 cells is 112 µM.

Values taken from patent publication US20240115537A1, “COMPOSITION FOR PREVENTING OR TREATING BREAST CANCER COMPRISING COMPOUND DERIVED FROM DENDROPANAX MORBIFERUS” (JEJU NATIONAL UNIVERSITY INDUSTRY-ACADEMIC COOPERATION …, priority 2022, published 2024).
